Data taken from patent publication US20170285010A1, “Analytical Methods and Arrays for Use in the Same” (SENZAGEN AB, priority 2014, published 2017).
Like-named read-outs stand apart in the source and are kept apart here.

How the values were obtained:
MUTZ-3 [1] = experiment: GARD Respiratory Prediction Signature (GRPS) SVM classification of the independent test dataset; settings: for SVM decision value: MUTZ-3, 24 h stimulation at GARD input concentration, 389 GRPS transcripts
Protocol: (§1) The human acute myelomonocytic leukemia cell line MUTZ-3[68,69] was obtained from Leibniz-lnstitut DSMZ-Deutsche Sammlung von Mikroorganismen and Zellkulturen (DSMZ, Braunschweig, Germany). Maintenance of cells, chemical stimulation of MUTZ-3 and all subsequent isolation of mRNA and preparation of cDNA were performed as previously described. In short, a phenotypic control of MUTZ-3 was performed using flow cytometry prior to chemical stimulation to ensure cells were in an immature state. The following FITC-conjugated mouse monoclonal antibodies (mAbs) were used: CD1a (DakoCytomation, Glostrup, Denmark), CD34, CD86, HLA-DR, IgG1 (BD Biosciences, Franklin Lakes, N.J.). The following PE-conjugated mouse monoclonal antibodies were used: CD14 (DakoCytomation), CD54, CD80, IgG1 (BD Biosciences). Cell viability was determined using Propidium Iodide (BD Biosciences) staining. Samples were run on FACSCanto II instrument. Data was acquired using FACS Diva software (BD Biosciences) and analyzed using FCS Express V4 (De Novo Software, Los Angeles, Calif.). Gating was performed to exclude cell debris and non-viable cells based on forward- and side-scattering properties and quadrants established using isotype-controls. During chemical exposure, cells were seeded at 200.000 cells/ml in 24-well plates and exposed to chemical compound at the GARD input concentration. Stimulated cells were harvested after 24 h incubation at 37° C., 5% CO2 and RNA was isolated with TRIzol® reagent (Life Technologies, Carlsbad, Calif.) using standardized protocols provided by the manufacturer. In parallel, a control of the maturity state of the cells was performed by flow cytometric analysis of CD86. Preparation of cDNA and hybridization, washing and scanning of the Human Gene 1.0 ST Arrays (Affymetrix, Santa Clara, Calif., USA) was performed, according to standardized protocols provided by the manufacturer (Affymetrix).
Gene expression data obtained from the Human Gene 1.0 ST Arrays were normalized using the Single-Channel array normalization (SCAN) algorithm, and potential batch effects between different set of experiments were adjusted using the ComBat empirical bayes method. Normalizations and batch adjustments were performed in R statistical software using the open software Bioconductor v2.14 [73] with the additional software packages SCAN.UPC [70] and sva . Normalized data was imported into Qlucore Omics Explorer 3.0 (Qlucore AB, Lund, Sweden) and visualized using Principal Component Analysis (PCA). Predictors were selected from a one-way ANOVA p-value filtration, using false discovery rate (FDR) to adjust for multiple hypothesis testing, comparing respiratory sensitizers and non-respiratory sensitizers. […] The Backward Elimination algorithm was modified to minimize the Kullback-Leibler error [53] rather than maximizing the Area Under the Receiver Operating Characteristic (AUC ROC), in order to enable signature optimization in cases where the AUC ROC reaches 1.0. […] The script for Backwards Elimination was programmed in R, with the additional package e1071 [78]. The method by which the predictive genomic biomarker signature was established was validated using cross-validation based on Support Vector Machines (SVM), based on a linear kernel, as described previously. In short, the training dataset was randomly divided into a new cross-validation training dataset comprising 70% of the stimulations, and a cross-validation test dataset comprising 30% of the stimulations. In addition, care was taken to maintain the same proportion between respiratory sensitizers and non-respiratory sensitizers as in the complete training dataset. A new predictive genomic biomarker signature was identified from the cross-validation training dataset using one-way ANOVA p-value filtration as described above.

MUTZ-3 [2] = experiment: Chemical cytotoxicity, Rv90 (90% relative viability), propidium iodide staining
From the text: A panel of 32 reference chemicals comprising a selection of 10 well characterized respiratory sensitizers and 22 non-respiratory sensitizers, collectively termed the training dataset, were used for cell stimulations in order to establish the predictive genomic biomarker signature. […] Additionally, a panel of 25 chemicals, including 6 respiratory sensitizers and 19 non-respiratory sensitizers, collectively termed the independent test dataset, were used for cell stimulations in order to form an independent testset for validation of the identified predictive genomic biomarker signature. The independent training dataset comprised both control chemicals, included during the training of the model, as well as chemicals previously unseen during training of the model. […] All chemicals were purchased from Sigma-Aldrich (St. Louis, Mo., USA). Chemicals were dissolved and diluted into GARD input concentration in either water or DMSO prior to stimulation of cells. For chemicals dissolved in DMSO, the in-well concentration of DMSO was 0.1%. Monitoring of chemical cytotoxicity and establishment of GARD input concentration for each chemical compound was performed as previously described. […] Toxic compounds were used at a concentration yielding 90% relative viability (Rv90). The criterion that was first met determined the GARD input concentration for each compound.
as §1

CD86 = CD86 expression of MUTZ-3 cells following chemical stimulation (flow cytometry); assay type: cell-based, human; settings: MUTZ-3, 24 h stimulation, compared with vehicle/unstimulated cells, student's t-test p<0.05
Protocol: CD86 expression of MUTZ-3 cells following chemical stimulations. […] Statistical significance was determined by student's t-test, comparing each stimulation with its corresponding vehicle, with p<0.05 indicated by *.
Maintenance of cells, chemical stimulation of MUTZ-3 and all subsequent isolation of mRNA and preparation of cDNA were performed as previously described [41,42]. In short, a phenotypic control of MUTZ-3 was performed using flow cytometry prior to chemical stimulation to ensure cells were in an immature state. The following FITC-conjugated mouse monoclonal antibodies (mAbs) were used: CD1a (DakoCytomation, Glostrup, Denmark), CD34, CD86, HLA-DR, IgG1 (BD Biosciences, Franklin Lakes, N.J.). The following PE-conjugated mouse monoclonal antibodies were used: CD14 (DakoCytomation), CD54, CD80, IgG1 (BD Biosciences). Cell viability was determined using Propidium Iodide (BD Biosciences) staining. Samples were run on FACSCanto II instrument. Data was acquired using FACS Diva software (BD Biosciences) and analyzed using FCS Express V4 (De Novo Software, Los Angeles, Calif.). Gating was performed to exclude cell debris and non-viable cells based on forward- and side-scattering properties and quadrants established using isotype-controls. During chemical exposure, cells were seeded at 200.000 cells/ml in 24-well plates and exposed to chemical compound at the GARD input concentration. Stimulated cells were harvested after 24 h incubation at 37° C., 5% CO2 and RNA was isolated with TRIzol® reagent (Life Technologies, Carlsbad, Calif.) using standardized protocols provided by the manufacturer. In parallel, a control of the maturity state of the cells was performed by flow cytometric analysis of CD86.
Prior to chemical challenge, cells were quality controlled by measuring the cellular expression of common myeloid and dendritic cell markers using flow cytometry. These markers included CD1a, CD14, CD34, CD54, CD80, CD86 and HLA-DR.

[3] = Max solubility of chemicals for establishing the GARD input concentration
[4] = occupational asthma and allergic contact dermatitis, ref. [64]; cited from earlier work
[5] = concentration yielding 90% relative viability, MUTZ-3, Table 2
[6] = respiratory sensitizer if any replicate stimulation has SVM decision value >0
[7] = concentration yielding 90% relative viability, MUTZ-3, Table 1
[8] = reference compounds used during assay development (Table 1)

Compound	Classification Pos if 1 sample >0 (MUTZ-3 [1])	SVM decision value (MUTZ-3 [1]; replicate 1)	SVM decision value (MUTZ-3 [1]; replicate 2)	SVM decision value (MUTZ-3 [1]; replicate 3)	also measured
CCCCO [1-Butanol]	Sensitizer (key: Sensitizer: classified as a respiratory sensitizer if any of replicate stimulations have a SVM decision value > 0)	−0.32	0.12		
O=[N+]([O-])c1ccc(Cl)c([N+](=O)[O-])c1 [2,4-dinitrochlorobenzene]		−1.66	−1.18	−1.90	Rv90 (MUTZ-3 [2]; [5]): 4 µM; Classification Pos if 1 sample >0 (MUTZ-3 [1]; [6]): Non-sensitizer
Nc1ccccc1O [2-Aminophenol]					Chemically induced up-regulation of CD86 (CD86): up-regulation of CD86 was also observed; Rv90 (MUTZ-3 [2]; [7]): 100 µM
C=CC(=O)OCCO [2-Hydroxyethyl acrylate]					Rv90 (MUTZ-3 [2]; [7]): 100 µM
Sc1nc2ccccc2s1 [2-mercaptobenzothiazole]		−0.44	−0.43	−0.57	
[Cl][Pt-2]([Cl])([Cl])([Cl])([Cl])[Cl].[NH4+].[NH4+] [Ammonium hexachloroplatinate]					Chemically induced up-regulation of CD86 (CD86): statistically significant; Max solubility [3, 8]: 35 µM
O=Cc1ccccc1 [Benzaldehyde]		−0.79	−0.87	−0.70	Classification Pos if 1 sample >0 (MUTZ-3 [1]; [6]): Non-sensitizer
Cc1ccc(S(=O)(=O)[N-]Cl)cc1.[Na+] [Chloramine T]		0.52	0.59		Classification Pos if 1 sample >0 (MUTZ-3 [1]; [6]): Sensitizer (classified as a respiratory sensitizer if any of replicate stimulations have a SVM decision value > 0)
Clc1ccccc1 [Chlorobenzene]		−1.03	−0.76	−1.15	SVM decision value (MUTZ-3 [1]; replicate 4): 0.24; SVM decision value (MUTZ-3 [1]; replicate 5): 0.06; Classification Pos if 1 sample >0 (MUTZ-3 [1]; [6]): Sensitizer (classified as a respiratory sensitizer if any of replicate stimulations have a SVM decision value > 0)
OCC=Cc1ccccc1 [Cinnamyl alcohol]	Non-sensitizer	−0.57	−1.44	−1.26	
CCOC(=O)c1ccccc1C(=O)OCC [Diethyl phthalate]		−1.37	−0.96	−1.22	Classification Pos if 1 sample >0 (MUTZ-3 [1]; [6]): Non-sensitizer
C=CCc1ccc(O)c(OC)c1 [Eugenol]	Non-sensitizer	−1.67	−1.53	−1.51	Rv90 (MUTZ-3 [2]; human): 300 µM
C=O [Formaldehyde]					Rv90 (MUTZ-3 [2]; human): 80 µM
O=CCCCC=O [Glutaraldehyde]					Chemically induced up-regulation of CD86 (CD86): statistically significant; Rv90 (MUTZ-3 [2]; human): 10 µM
OCC(O)CO [Glycerol]	Non-sensitizer	−1.05	−1.11	−0.77	
O=CC=O [Glyoxal]		−1.02	−0.69	−0.56	Rv90 (MUTZ-3 [2]; [5]): 300 µM; Classification Pos if 1 sample >0 (MUTZ-3 [1]; [6]): Non-sensitizer
CC=Cc1ccc(O)c(OC)c1 [Isoeugenol]					Rv90 (MUTZ-3 [2]; human): 300 µM
CC(O)C(=O)O (centres unmarked) [Lactic acid]		−1.20	−0.81	−0.89	
O=C=Nc1ccc(Cc2ccc(N=C=O)cc2)cc1 [Methylene diphenol diisocyanate]					Max solubility [3, 8]: 50 µM
CCCCCCCC(=O)O [Octanoic acid]	Non-sensitizer	−0.65	−0.79	−1.22	
Oc1ccccc1 [Phenol]	Non-sensitizer				
O=C1OC(=O)c2ccccc21 [Phtalic Anhydride]		0.20	−0.12		Classification Pos if 1 sample >0 (MUTZ-3 [1]; [6]): Sensitizer (classified as a respiratory sensitizer if any of replicate stimulations have a SVM decision value > 0); Max solubility ([3]; chemicals of the independent dataset (Table 2)): 200 µM; Max solubility [3, 8]: 200 µM
C1CNCCN1 [Piperazine]	Non-sensitizer	−0.05	−0.12		
Oc1cccc(O)c1 [Resorcinol]	Non-sensitizer	−1.01	−0.99	−1.40	
O=C(O)c1ccccc1O [Salicylic acid]	Non-sensitizer	−0.73	−1.08	−1.13	
CCCCCCCCCCCCOS(=O)(=O)[O-].[Na+] [Sodium dodecyl sulphate]	Non-sensitizer	−1.49	−0.80	−1.30	Rv90 (MUTZ-3 [2]; [5]): 200 µM
O=C(O)c1ccc(O)cc1 [p-hydroxybenzoic acid]	Non-sensitizer	−0.81	−0.56	−1.09	
Nc1ccc(N)cc1 [p-phenylenediamine]		−1.38	−1.19	−1.80	Rv90 (MUTZ-3 [2]; [5]): 75 µM; Classification Pos if 1 sample >0 (MUTZ-3 [1]; [6]): Non-sensitizer
O=c1n(CC2CO2)c(=O)n(CC2CO2)c(=O)n1CC1CO1 (centres unmarked) [triglycidylisocyanurate]					Sensitization in humans (OA, ACD) [4]: cause both OA and ACD
